Source: ChEMBL document CHEMBL5370534, “Discovery of novel triazine derivatives as potent retinoic acid receptor-related orphan receptor γt (RORγt) inverse agonists” (Eur J Med Chem, 2023)

Molecular target: T1, Nuclear receptor ROR-gamma (Homo sapiens, UniProt P51449)
T1 sequence (P51449 whole entry): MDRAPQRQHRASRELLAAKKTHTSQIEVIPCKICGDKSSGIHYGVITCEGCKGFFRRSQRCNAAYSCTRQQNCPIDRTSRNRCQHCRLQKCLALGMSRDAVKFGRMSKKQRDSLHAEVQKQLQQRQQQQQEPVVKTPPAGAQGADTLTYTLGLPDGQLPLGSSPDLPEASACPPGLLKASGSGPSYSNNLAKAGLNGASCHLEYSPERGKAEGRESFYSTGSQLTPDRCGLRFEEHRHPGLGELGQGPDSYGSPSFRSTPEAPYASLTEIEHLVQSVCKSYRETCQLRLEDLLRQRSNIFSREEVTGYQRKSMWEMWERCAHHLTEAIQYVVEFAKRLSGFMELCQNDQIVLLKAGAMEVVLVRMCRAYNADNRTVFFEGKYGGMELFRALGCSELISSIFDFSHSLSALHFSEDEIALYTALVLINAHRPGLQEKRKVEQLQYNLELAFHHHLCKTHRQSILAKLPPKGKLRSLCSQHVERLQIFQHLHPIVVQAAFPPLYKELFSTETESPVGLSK
Conditions: not given

First: O=C(O)c1ccc(Nc2nc(Oc3c(Cl)cccc3Cl)nc(-c3ccc(F)cc3)n2)cc1
Second: Cc1ccc(-c2nc(Nc3ccc(C(=O)O)cc3)nc(Oc3c(Cl)cccc3Cl)n2)cc1
The IC50 of the first is 2.5-fold higher: 0.152 µM for the first, 0.0617 µM for the second.

`CC(C)(C)c1ccc(-c2nc(Nc3ccc(C(=O)O)cc3)nc(Oc3c(Cl)cccc3Cl)n2)cc1` and `O=C(O)c1ccc(Nc2nc(Oc3c(Cl)cccc3Cl)nc(-c3ccc(C(F)(F)F)cc3)n2)cc1` are within 1.5-fold of each other in IC50: 0.0995 µM for the first, 0.0686 µM for the second.

Compared with `COc1ccc(-c2nc(NC3CCC(C(=O)O)C3)nc(Oc3c(Cl)cccc3Cl)n2)cc1` (stereo unspecified), `COc1ccc(-c2nc(Nc3cccc(C(=O)O)c3)nc(Oc3c(Cl)cccc3Cl)n2)cc1` is 9-fold lower in IC50: 0.822 µM for the first, 0.091 µM for the second.

Compared with `CNS(=O)(=O)c1ccc(Nc2nc(Oc3c(Cl)cccc3Cl)nc(-c3ccc(OC)cc3)n2)cc1`, `CNC(=O)c1ccc(Nc2nc(Oc3c(Cl)cccc3Cl)nc(-c3ccc(OC)cc3)n2)cc1` is 2.5-fold lower in IC50: 0.0325 µM for the first, 0.0129 µM for the second. The second is the more potent here.

Going from `O=C(O)c1ccc(Nc2nc(Oc3c(Cl)cccc3Cl)nc(C3CCCCC3)n2)cc1` to `O=C(O)c1ccc(Nc2nc(Oc3c(Cl)cccc3Cl)nc(C3CCCC3)n2)cc1`, the IC50 rises from 0.596 µM to 3.42 µM (5.7-fold).

`CC(=O)Nc1ccc(Nc2nc(Oc3c(Cl)cccc3C(F)(F)F)nc(-c3ccc(C(F)(F)F)cc3)n2)cc1` and `CNC(=O)c1ccc(Nc2nc(Oc3c(Cl)cccc3Cl)nc(-c3ccc(C(F)(F)F)cc3)n2)cc1` are within 1.5-fold of each other in IC50: 0.032 µM for the first, 0.0225 µM for the second.

Compared with `COc1ccc(-c2nc(Nc3ccc(C(C)C(=O)O)cc3)nc(Oc3c(Cl)cccc3Cl)n2)cc1` (stereo unspecified), `COc1ccc(-c2nc(Nc3ccc(C(N)=O)cc3)nc(Oc3c(Cl)cccc3Cl)n2)cc1` is 7.5-fold lower in IC50: 0.0995 µM for the first, 0.0133 µM for the second.

Compared with `Cc1cccc(-c2nc(Nc3ccc(C(=O)O)cc3)nc(Oc3c(Cl)cccc3Cl)n2)c1`, `COc1ccc(-c2nc(Nc3ccc(C(=O)O)c(O)c3)nc(Oc3c(Cl)cccc3Cl)n2)cc1` is 2.9-fold lower in IC50: 0.241 µM for the first, 0.083 µM for the second. The second is the more potent here.

With `CNC(=O)c1ccc(Nc2nc(Oc3c(Cl)cccc3C(F)(F)F)nc(-c3ccc(OC)cc3)n2)cc1` the IC50 was 0.0167 µM.

Test system: Mus musculus
Experiment: Antiinflammatory activity against imiquimod-induced psoriasis BALB/c mouse model assessed as reduction in psoriasis symptoms at 0.4 mg/kg, po qd for 7 days
Conditions: 168 h, read-out: INH

In the case of `CN(Cc1cnc2nc(N)nc(N)c2n1)c1ccc(C(=O)N[C@@H](CCC(=O)O)C(=O)O)cc1` [METHOTREXATE], the inhibition in vivo at 0.4 mg/kg is reported as 53.1%.

Test system: not listed separately
Experiment: Half life in mouse liver microsomes at 1 mM in presence of NADPH by HPLC-MS/MS analysis
Set-up: dose or concentration left out as unconfirmed
Conditions: not given

Compared with `CC(=O)Nc1ccc(Nc2nc(Oc3c(Cl)cccc3C(F)(F)F)nc(-c3ccc(C(F)(F)F)cc3)n2)cc1`, `O=C(O)c1ccc(Nc2nc(Oc3c(Cl)cccc3Cl)nc(-c3ccc(C(F)(F)F)cc3)n2)cc1` is higher in half-life: 17.8 min for the first, > 145 min for the second.

Molecular target: T1, Nuclear receptor ROR-gamma
Conditions: not given
Remark: another data set of the same source

In the case of `O=C(O)c1ccc(Nc2nc(Oc3c(Cl)cccc3Cl)nc(-c3ccc(C(F)(F)F)cc3)n2)cc1`, the IC50 is reported as 1.62 µM.
